According to US20220218678A1, “USE OF 1-PHENYL-2-PYRIDINYL ALKYL ALCOHOL DERIVATIVES FOR TREATING CYSTIC FIBROSIS” (CHIESI FARMACEUTICI S.p.A., priority 2017, published 2022):

Assays:
[1] = diarrhea, weight loss, nausea, headache, insomnia and others; cited from earlier work
CFTR [2] = molecular target: T1, CFTR (Homo sapiens, UniProt P13569, DEL508-508); assay: Flow cytometry, presence of CFTR epitopes on CFBE41o− cells; assay type: cell-based; conditions: 24 h of treatment, CHF6001 30 nM, Roflumilast 50 nM
T1 construct: cells expressing endogenous ΔF508-CFTR; endogenous in cells; host or cells: CFBE41o− human CF bronchial epithelial cell line (gift from D. C. Gruenert), homozygous ΔF508
T1 sequence (P13569 with tags, fused parts or gaps DEL508-508): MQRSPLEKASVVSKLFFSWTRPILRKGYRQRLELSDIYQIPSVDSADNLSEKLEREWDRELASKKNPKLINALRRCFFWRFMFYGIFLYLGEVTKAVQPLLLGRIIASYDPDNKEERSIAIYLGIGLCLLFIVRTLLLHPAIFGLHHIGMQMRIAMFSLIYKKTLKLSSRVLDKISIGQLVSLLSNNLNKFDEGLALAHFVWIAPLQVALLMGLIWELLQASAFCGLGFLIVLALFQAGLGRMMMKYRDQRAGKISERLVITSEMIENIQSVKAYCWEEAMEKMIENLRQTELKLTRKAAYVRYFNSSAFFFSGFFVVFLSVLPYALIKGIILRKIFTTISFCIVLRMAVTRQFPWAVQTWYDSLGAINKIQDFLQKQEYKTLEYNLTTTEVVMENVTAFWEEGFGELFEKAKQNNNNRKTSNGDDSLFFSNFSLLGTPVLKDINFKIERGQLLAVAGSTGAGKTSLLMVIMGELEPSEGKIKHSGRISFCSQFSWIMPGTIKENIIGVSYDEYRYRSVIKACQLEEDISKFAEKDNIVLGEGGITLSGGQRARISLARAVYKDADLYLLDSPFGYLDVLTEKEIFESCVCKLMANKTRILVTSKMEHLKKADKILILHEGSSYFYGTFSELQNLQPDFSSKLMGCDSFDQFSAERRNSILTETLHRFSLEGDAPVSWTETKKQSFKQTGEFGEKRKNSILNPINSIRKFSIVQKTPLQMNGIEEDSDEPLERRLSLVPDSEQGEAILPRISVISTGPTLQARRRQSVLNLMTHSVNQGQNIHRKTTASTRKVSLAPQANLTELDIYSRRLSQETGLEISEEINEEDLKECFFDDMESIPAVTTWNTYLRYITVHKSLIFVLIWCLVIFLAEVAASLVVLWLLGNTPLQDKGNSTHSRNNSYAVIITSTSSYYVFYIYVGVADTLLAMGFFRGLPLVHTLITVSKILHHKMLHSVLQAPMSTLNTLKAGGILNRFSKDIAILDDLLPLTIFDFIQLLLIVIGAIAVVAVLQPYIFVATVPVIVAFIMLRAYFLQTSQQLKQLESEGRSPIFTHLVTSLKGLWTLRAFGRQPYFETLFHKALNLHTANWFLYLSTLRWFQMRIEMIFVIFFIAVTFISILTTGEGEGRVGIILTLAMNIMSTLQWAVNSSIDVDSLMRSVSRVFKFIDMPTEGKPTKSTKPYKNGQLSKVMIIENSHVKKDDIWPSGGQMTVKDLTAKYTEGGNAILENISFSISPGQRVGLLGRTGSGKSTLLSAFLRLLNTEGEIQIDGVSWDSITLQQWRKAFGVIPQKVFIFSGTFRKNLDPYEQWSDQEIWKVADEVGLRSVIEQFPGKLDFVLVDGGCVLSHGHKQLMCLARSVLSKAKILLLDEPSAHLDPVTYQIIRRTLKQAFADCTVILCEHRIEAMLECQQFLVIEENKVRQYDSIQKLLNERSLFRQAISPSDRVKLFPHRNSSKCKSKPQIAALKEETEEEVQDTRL
Experimental: CFBE41o− cells were seeded 1.5×10^5 cells/well into a 6 multi-well dish in EMEM medium, supplemented with 10% FBS and 1 mM L-glutamine, and maintained in incubator at 37° C. overnight. The day after, the cells were treated with different agents, as follows: VRT809 (5 μM), CHF6001 (30 nM), Roflumilast (50 nM) or the vehicle DMSO. After 24 h cells were harvested.
Specifically for detection of the extracellular domain of CFTR, the cells were washed with PBS 1× and successively stained with the anti-CFTR monoclonal antibody CF3 (Abeam), suitable for detection of the extracellular domain of CFTR. After washing, the secondary antibody goat anti-mouse (μ-chain) conjugated with Alexa Fluor-488 (Invitrogen, Carlsbad, U.S.A.) was added (1 μg for 10^6 cells) for 30 min on ice. […]
Finally cells were washed twice and then analysed at MACSQuant Analyzer (Miltenyi Biotech, Cologne, Germany), and data were analysed with FlowJo Software (Tree Star, Inc).
The percentage of events with background noise (determined with IgM isotype or peptide signal) was subtracted and the result was expressed as %-values of CFTR positive cells. Geometrical means of the signal in the green channel were also obtained and a ratio between the signals obtained with the extracellular-domain specific antibody CF3 and with the polyclonal antibody (Alomone), respectively, with respect to the baseline signal was calculated (MFI). […]

CFTR [3] = molecular target: T1, CFTR; assay: Western Blot, total presence of CFTR protein in CFBE41o− cells; assay type: cell-based; conditions: 24 h exposure, VRT809 5 μM
Experimental: CFBE41o− and 16HBE14o− cells, respectively, were lysed in lysis buffer (50 mmol/L Tris, 150 mmol/L NaCl, 1 mmol/L EDTA, 1% Triton X-100 pH 7.4) containing protease inhibitors (Roche, Inc.). A total of 10 μg (16HBE14o−/CFBE41o−) total protein per lane was separated using 7.5% (v/v) polyacrylamide electrophoresis (PAGE) SDS gels and transferred onto nitro-cellulose membranes, that were probed with a monoclonal anti-CFTR antibody (Cell Signaling 2269; according to information provided by Cell Signaling produced by immunizing rabbits with a synthetic peptide corresponding to amino acid residues near the amino terminus of human CFTR) at a 1:500 dilution, overnight at 4° C. Membranes were re-probed with a monoclonal anti-actin (Sigma-Aldrich) to normalize for protein loading. The relative levels of CFTR were estimated by densitometry using the ImageJ program (http://rsb.info.nih.gov/ij/). The amount of band C (understood to be the fully glycosylated mature form of CFTR)) is calculated as a fraction of actin for the respective lane and reported as a fraction of the total (band C/actin). […] The values reported are expressed as means+/−SD (n=3). Data sets were compared by a t-test using GraphPad Prism. […]
FIG. 5. Presence of CFTR was evaluated by western blotting in human bronchial epithelial cell lines 16HBE14o− (non CF) and CFBE41o− (ΔF508/ΔF508) after 24 h exposure to CFTR corrector VRT809 (5 μM) in comparison with the two compounds CHF6001 and Roflumilast.
Top: average of several experiments; the relative levels of CFTR were estimated by densitometry using the ImageJ program (http://rsb.info.nih.gov/ij/). The native amount of band C is calculated as a fraction of actin for the respective lane and reported as a fraction of the total (band C/actin). The values reported are expressed as means+/−SEM (n=3). […]

| Compound | frequency of common adverse effects in subjects [1] | presence of CFTR epitopes (CF3 extracellular, Alomone intracellular) (CFTR [2]) | total presence of CFTR protein (band C/actin) (CFTR [3]) |
| --- | --- | --- | --- |
| O=C(Nc1c(Cl)cncc1Cl)c1ccc(OC(F)F)c(OCC2CC2)c1 [Roflumilast, 3-cyclo-propylmethoxy-4-difluoromethoxy-N-[3,5-di-chloropyrid-4-yl]-benzamide] | 1-10% | restore the presence of CFTR epitopes | up-regulation of CFTR protein |
| CS(=O)(=O)Nc1ccc(C(=O)OC(Cc2c(Cl)c[n+]([O-])cc2Cl)c2ccc(OC(F)F)c(OCC3CC3)c2)cc1OCC1CC1 (centres unmarked) [CHF6001, 3-Cyclopropylmethoxy-4-methanesulfonylamino-benzoic acid 1-(3-cyclopropylmethoxy-4-difluoromethoxy-phenyl)-2-(3,5-dichloro-1-oxy-pyridin-4-yl)-ethyl ester] | – | restore the presence of CFTR epitopes | up-regulation of CFTR protein |
